Some results are limits rather than exact numbers.

The subject of test [1] is human prion strain causing Gerstmann-Sträussler-Scheinker syndrome (GSS). Also noted: species or system mice. The conditions noted are these: mouse, in vivo, ip.
Test [2] relates to 22L. Also noted: species or system mice. The conditions noted are these: mouse, in vivo.
For test [3], the system named is RML. Also on record: species or system mice. The conditions noted are these: mouse, in vivo.
Test [4] concerns the target murine prion strain RML (Mus musculus, UniProt P04925). It counts as biochemical.
For test [5], the system named is 301C. Also on record: species or system mice. The conditions noted are these: mouse, in vivo.
Test [6] relates to Vole-CWD prion strain. Also on record: species or system mice. The conditions noted are these: mouse, in vivo.

Sequence of murine prion strain RML (P04925 23-230 limits assumed): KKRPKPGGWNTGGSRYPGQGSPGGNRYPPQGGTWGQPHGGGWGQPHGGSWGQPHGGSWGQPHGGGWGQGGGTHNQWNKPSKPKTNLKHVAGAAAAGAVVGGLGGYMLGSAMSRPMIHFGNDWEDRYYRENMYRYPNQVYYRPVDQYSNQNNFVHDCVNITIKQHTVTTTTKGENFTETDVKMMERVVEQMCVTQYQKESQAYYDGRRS

As to `O=C(O)CCC1=C(CC(=O)O)c2cc3[nH]c(cc4nc(cc5[nH]c(cc1n2)c(CC(=O)O)c5CCC(=O)O)C(CC(=O)O)=C4CCC(=O)O)c(CC(=O)O)c3CCC(=O)O` [UROI, uroporphyrin I], the entries for the “increase in survival time” value in test [1] and in test [6] were over 200% and 11%, respectively. Besides, the survival time prolongation in test [2] came out at 10%; in test [5], 12%. Also, in test [3], the “increase in survival times” value turned out to be 30%. The “prion propagation inhibitory capacity” value in test [4] is given as “showed prion propagation inhibitory capacity”. Besides, the “times more efficient as inhibitor” value in test [4] came to 125 times.

On to `C[n+]1ccc(-c2c3nc(c(-c4cc[n+](C)cc4)c4ccc([nH]4)c(-c4cc[n+](C)cc4)c4nc(c(-c5cc[n+](C)cc5)c5ccc2[nH]5)C=C4)C=C3)cc1` [TMPyP, reference compound], for which the “prion propagation inhibitory capacity” value in test [4] was “showed prion propagation inhibitory capacity”.
